pIC50: −log10 of the molar value.

The source of these data is US20260365663A1, “EMOPAMIL-BINDING PROTEIN INHIBITORS AND USES THEREOF” (BIOGEN MA INC., priority 2022, published 2026).

T1 sequence (Q15125 whole entry): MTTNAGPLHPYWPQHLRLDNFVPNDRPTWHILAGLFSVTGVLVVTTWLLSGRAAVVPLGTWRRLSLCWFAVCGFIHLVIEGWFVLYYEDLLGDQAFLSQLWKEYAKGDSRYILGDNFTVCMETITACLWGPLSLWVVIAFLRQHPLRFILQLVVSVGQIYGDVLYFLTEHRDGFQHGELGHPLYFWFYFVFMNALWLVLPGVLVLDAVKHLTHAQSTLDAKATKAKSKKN

One experiment addresses T1, EBP (Homo sapiens, UniProt Q15125).
T1 construct: HEK293T cells were utilized as the source of EBP enzyme; endogenous in cells; host or cells: HEK293T
Kind of experiment: EBP Functional Assay (EBP immunoaffinity LC-MS assay). The class given is biochemical.
Conditions: not given
The method, boiled down: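 HEK293T-derived EBP preincubated 30 min with inhibitor, then zymosterol-d5 added and incubated 4 h at 37 °C. Extracted sterols quantified by LC-APCI MRM MS (372.3-203.2, positive mode). IC50 from percent conversion to […], fit to a 4-parameter logistic model.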
On to `Cc1nc(C(F)(F)F)ncc1S(=O)(=O)N1CC2(CC(N(C)C3CCOCC3)C2)C1` [Example 80, N-methyl-2-((4-methyl-2-(trifluoromethyl)pyrimidin-5-yl)sulfonyl)-N-(tetrahydro-2H-pyran-4-yl)-2-azaspiro[3.3]heptan-6-amine], for which the pIC50 was greater than 7.00.

Staying with this experiment, now noted: HEK293T cells as source of EBP enzyme; zymosterol-d5 substrate; inhibitor 30 min, then 37 °C for 4 h; percent conversion to dehydrolathosterol-d5 by LC-APCI MRM MS; read-out: EBP Functional Assay.
On to `Cc1nc(C(C)(F)F)ccc1S(=O)(=O)N1CC2(CC(N(C)CC3CCOCC3)C2)C1` [Example 75, 2-((6-(1,1-difluoroethyl)-2-methylpyridin-3-yl)sulfonyl)-N-methyl-N-((tetrahydro-2H-pyran-4-yl)methyl)-2-azaspiro[3.3]heptan-6-amine], for which the pIC50 is 6.30 to 7.00. Regarding `Cc1nc(C(F)(F)F)ncc1S(=O)(=O)N1CC2(CC(NC3CCOCC3)C2)C1` [Example 76, 2-((4-methyl-2-(trifluoromethyl)pyrimidin-5-yl)sulfonyl)-N-(tetrahydro-2H-pyran-4-yl)-2-azaspiro[3.3]heptan-6-amine], the pIC50 is 6.30 to 7.00. Regarding `Cc1nc(C(F)(F)F)ncc1S(=O)(=O)N1CC2(CC(NC3COC3)C2)C1` [Example 77, 2-((4-methyl-2-(trifluoromethyl)pyrimidin-5-yl)sulfonyl)-N-(oxetan-3-yl)-2-azaspiro[3.3]heptan-6-amine], the pIC50 was 5.52 to 6.30. Still for that read-out and setting: to `Cc1nc(C(F)(F)F)ncc1S(=O)(=O)N1CC2(CC(NC3CC4(COC4)C3)C2)C1` (stereo not drawn) [Example 78, 2-((4-methyl-2-(trifluoromethyl)pyrimidin-5-yl)sulfonyl)-N-(2-oxaspiro[3.3]heptan-6-yl)-2-azaspiro[3.3]heptan-6-amine] belongs 6.30 to 7.00; to `Cc1nc(C(F)(F)F)ncc1S(=O)(=O)N1CC2(CC(NCC3CCOCC3)C2)C1` [Example 79, 2-((4-methyl-2-(trifluoromethyl)pyrimidin-5-yl)sulfonyl)-N-((tetrahydro-2H-pyran-4-yl)methyl)-2-azaspiro[3.3]heptan-6-amine], 6.30 to 7.00; to `Cc1nc(C(F)(F)F)ncc1S(=O)(=O)N1CC2(CC(N(C)C3COC3)C2)C1` [Example 81, N-methyl-2-((4-methyl-2-(trifluoromethyl)pyrimidin-5-yl)sulfonyl)-N-(oxetan-3-yl)-2-azaspiro[3.3]heptan-6-amine], 6.30 to 7.00. Take `Cc1nc(C(F)(F)F)ncc1S(=O)(=O)N1CC2(CC(N(C)C3CC4(COC4)C3)C2)C1` (stereo not drawn) [Example 82, N-methyl-2-((4-methyl-2-(trifluoromethyl)pyrimidin-5-yl)sulfonyl)-N-(2-oxaspiro[3.3]heptan-6-yl)-2-azaspiro[3.3]heptan-6-amine]: the pIC50 was greater than 7.00. The same measure, in the same setting: next, `Cc1nc(C(F)(F)F)ncc1S(=O)(=O)N1CC2(CC(N(C)CC3CCOCC3)C2)C1` [Example 83, N-methyl-2-((4-methyl-2-(trifluoromethyl)pyrimidin-5-yl)sulfonyl)-N-((tetrahydro-2H-pyran-4-yl)methyl)-2-azaspiro[3.3]heptan-6-amine]: 6.30 to 7.00.
